Experiments:
hCA II = hCA II (Homo sapiens, UniProt P00918); test: Carbonic anhydrase II inhibition activity; type: biochemical
hCA XII = hCA XII (Homo sapiens, UniProt O43570); test: Carbonic anhydrase XII inhibition activity; type: biochemical
hCA IX = hCA IX (Homo sapiens, UniProt Q16790); test: biochemical; settings: for IC50: IC50 (μM) ± SEM CA IX, ± SEM

Chain of hCA XII (O43570 25-354): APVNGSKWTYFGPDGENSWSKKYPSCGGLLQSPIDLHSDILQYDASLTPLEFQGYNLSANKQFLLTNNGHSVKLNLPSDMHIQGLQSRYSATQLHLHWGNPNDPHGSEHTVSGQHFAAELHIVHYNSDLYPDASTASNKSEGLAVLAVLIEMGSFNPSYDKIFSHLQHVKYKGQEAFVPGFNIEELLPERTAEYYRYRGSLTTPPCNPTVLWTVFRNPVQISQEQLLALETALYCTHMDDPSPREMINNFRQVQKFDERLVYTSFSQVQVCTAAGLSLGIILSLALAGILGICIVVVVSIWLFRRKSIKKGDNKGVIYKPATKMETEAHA

IC50 (hCA II)	IC50 (hCA XII)	IC50 (hCA IX; CA IX)	SMILES	further results
1740 ± 540 nM	1140 ± 370 nM		COc1ccc(S(=O)(=O)Nc2ccccc2)cc1 [Compound 3k, 4-Methoxy-N-phenylbenzenesulfonamide]	
507 ± 400 nM	1400 ± 570 nM		COc1ccc(S(=O)(=O)NC(c2ccccc2)c2ccccc2)cc1 [Compound 3m, N-Benzhydryl-4-methoxybenzenesulfonamide]	
520 ± 440 nM	1080 ± 620 nM	0.484 ± 1.4 µM	Cc1ccc(S(=O)(=O)NNc2ccccc2)cc1 [Compound 3h, 4-Methyl-N′-phenylbenzenesulfonohydrazide]	
2500 ± 1500 nM	1120 ± 1000 nM	0.62 ± 0.2 µM	Cc1ccc(S(=O)(=O)Nc2ccc(C)c(C)c2)cc1 [Compound 3j, N-(3,4-Dimethylphenyl)-4-methylbenzenesulfonamide]	
	1170 ± 1000 nM	0.764 ± 0.54 µM	COc1ccc(CCNS(=O)(=O)c2ccc(C)cc2)cc1OC [Compound 3l, N-(3,4-Dimethoxyphenethyl)-4-methylbenzenesulfonamide]	% inhibition CA II (hCA II; CA II, at 100 μM): 32%; inhibition at 100 µM (hCA II; read-out: % inhibition CA II, CA II, at 100 μM): < 50%
2760 ± 1100 nM			COc1ccc(S(=O)(=O)NNc2ccccc2)cc1 [Compound 3i, 4-Methoxy-N′-phenylbenzenesulfonohydrazide]	% inhibition CA XII (hCA XII; CA XII, at 100 μM): 27%
863 ± 540 nM	1300 ± 780 nM	0.78 ± 0.83 µM	Cc1ccc(S(=O)(=O)NC(c2ccccc2)c2ccccc2)cc1 [Compound 3g, N-Benzhydryl-4-methylbenzenesulfonamide]	

The remaining lines, values behind:

SMILES	IC50 (hCA II)	IC50 (hCA XII)	IC50 (hCA IX; CA IX)	further results
CCN(CC)c1ccc(NS(=O)(=O)c2ccc(C)cc2)cc1 [Compound 3e, N-(4-(Diethylamino)phenyl)-4-methylbenzenesulfonamide]		630 ± 140 nM		% inhibition CA IX (hCA IX; CA IX, at 100 μM): 31%; inhibition at 100 µM (hCA IX; read-out: % inhibition CA IX, CA IX, at 100 μM): < 31%
Cc1ccc(S(=O)(=O)Nc2cc(C)ccc2C)cc1 [Compound 3b, N-(2,5-Dimethylphenyl)-4-methylbenzenesulfonamide]		1030 ± 230 nM	1.65 ± 1.3 µM	
Cc1ccc(S(=O)(=O)Nc2c(C)cccc2C)cc1 [Compound 3c, N-(2,6-Dimethylphenyl)-4-methylbenzenesulfonamide]	1550 ± 800 nM	700 ± 200 nM	1.06 ± 0.63 µM	
Cc1ccc(S(=O)(=O)Nc2ccccc2)cc1 [Compound 3a, 4-Methyl-N-phenylbenzenesulfonamide]	1300 ± 510 nM		1.2 ± 0.75 µM	
Cc1ccc(S(=O)(=O)NCc2ccccc2)cc1 [Compound 3f, N-benzyl-4-methylbenzenesulfonamide]	1070 ± 820 nM	860 ± 280 nM	1.98 ± 0.61 µM	

Source: paper PMC8979346 (RSC Advances, 2022)
